Laboratory results from publication PMC11697113, “The Hsc70 system maintains the synaptic SNARE protein SNAP-25 in an assembly-competent state and delays its aggregation [drawing 1]” (The Journal of Biological Chemistry, 2024).

Columns and labels:
[1] = target: T1, Hsc70 (Homo sapiens, UniProt P11142); experiment: SNAP-25 cellulose-bound peptide array probed with Hsc70; assay type: binding; conditions: Hsc70 100 nM, 1 h, 25 °C; for Hsc70 binding of the SNAP-25 sequence in the peptide array: ADP/ATP, anti-Hsc70 chemiluminescence
T1 construct: 6X His-tag (TEV-cleavable) (cleaved yes); made in house; host or cells: E. coli Rosetta (DE3)
Text: To explore in greater depth the binding sites for Hsc70 in SNAP-25, we screened a cellulose-bound peptide array spanning the full SNAP-25 sequence with 13-residue long peptides, overlapping by ten residues, and probed with Hsc70 in the presence of a two-fold excess of ATP and […] of ADP. The binding of Hsc70 to sites in the array was then visualized with an anti-Hsc70 primary antibody and a horse radish peroxidase-tagged secondary antibody to enable visualization by chemiluminescence (Fig. 4A). To quantitatively analyze the array, we used ImageJ (https://imagej.net/ij/) and plotted the intensity under the area for each spot. […] One site is located in the SNN, one in the LOOP, and one in the LOOP-SNC region (called SNC site) (Fig. 4A) […] (Fig. 1C). […] The binding site in the LOOP region is very close to the cysteine residues that become palmitoylated as SNAP-25 moves to its membrane-localized state. It is formally possible that Hsc70 binds to SNAP-25 in the initial un-palmitoylated state and dissociates upon palmitoylation and association with the plasma membrane. However, it can be assumed that the binding of this region to Hsc70 is not implicated in the events directly preceding SNARE complex assembly, as it will not be accessible to the chaperone. Therefore, we posit that chaperone binding to the SNN and SNC regions plays a mechanistic role in facilitating productive SNAP-25 association with the other SNARE proteins.
B, quantification of the spots from Figure 4A using ImageJ (Hsc70 (gray) and Hsc70-CSPαJ (dark gray)). Signals corresponding to SNN, Loop and Loop-SNC peptides are marked in orange, blue, and green, respectively. Orange, blue, and green lines at the top of the graph indicate the SNN, Loop and SNC regions, respectively. C, schematic representation of SNAP-25 showing the Hsc70 binding sequences (SNN (orange), Loop (black), and Loop-SNC (green)) identified in the peptide array. […]
A peptide array of SNAP-25 was obtained from CEM corporation. […] The chemiluminescence was captured in a G-box (Syngene), and the images were analyzed using ImageJ.

[2] = system: V438F Hsc70; experiment: ATPase activity of V438F Hsc70; assay type: biochemical, human; conditions: V438F Hsc70 2 μM, peptide 200 μM; binding site blocked; three independent experiments (Fig. S3)
Text: Hsp70s consist of an nucleotide-binding domain (NBD) and a substrate-binding domain (SBD). Hsc70 works using an allosteric mechanism whereby substrate binding at the SBD stimulates the ATP hydrolysis rate at the nucleotide-binding domain. The basal ATPase rate of Hsp70 is low, usually about 0.05 ± 0.009 mol Pi/mol protein, and increases when it is stimulated by binding of a peptide to the canonical site in the SBD. We measured the ability of SNAP-25 peptides SNNP and SNCP to stimulate the ATPase rate of Hsc70 (Fig. 5A). SNNP and SNCP binding cause a 1.5-fold increase of the Hsc70 ATPase rate over basal (observed rates upon addition of SNNP and SNCP were 0.089 ± 0.008 and 0.080 ± 0.005, respectively). In order to confirm that peptides are indeed binding at the canonical binding site of Hsc70, we used the V438F mutant that blocks the binding site ([37]). […] The addition of CSPαJ stimulates the ATPase activity of Hsc70 ∼4-fold with and without peptides.
We performed ATPase assays to observe the activity of Hsc70 in the presence of SNAP25 peptides. Hsc70 (2 μM) and peptide (200 μM) were incubated in HMK buffer with 1 mM DTT for 15 min followed by addition of 1 mM ATP and incubation at 37 °C for 1 h. […] Absorbance readings were taken at 620 nm using a BioTek plate reader. […]

T1 sequence (P11142 whole entry): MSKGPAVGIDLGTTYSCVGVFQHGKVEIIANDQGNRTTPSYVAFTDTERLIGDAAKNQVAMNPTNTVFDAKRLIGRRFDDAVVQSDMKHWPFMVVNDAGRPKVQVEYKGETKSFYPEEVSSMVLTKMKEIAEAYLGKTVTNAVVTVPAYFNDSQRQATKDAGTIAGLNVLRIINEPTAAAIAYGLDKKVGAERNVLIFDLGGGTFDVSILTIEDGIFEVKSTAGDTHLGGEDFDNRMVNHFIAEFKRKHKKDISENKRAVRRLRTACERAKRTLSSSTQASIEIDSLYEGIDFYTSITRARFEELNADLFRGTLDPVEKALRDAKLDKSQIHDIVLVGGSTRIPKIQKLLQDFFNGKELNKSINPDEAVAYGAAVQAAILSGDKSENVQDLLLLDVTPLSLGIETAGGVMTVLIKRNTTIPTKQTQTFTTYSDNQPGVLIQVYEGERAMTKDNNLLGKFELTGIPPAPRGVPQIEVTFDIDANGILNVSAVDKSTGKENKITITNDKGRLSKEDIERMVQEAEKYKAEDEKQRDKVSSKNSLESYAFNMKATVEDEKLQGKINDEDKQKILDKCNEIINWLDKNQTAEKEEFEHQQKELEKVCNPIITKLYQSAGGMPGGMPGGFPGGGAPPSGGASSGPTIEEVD

Substance	number of major Hsc70 binding sites on SNAP-25 ([1]; 13-residue peptides overlapping by ten, 20 μM ADP, 200 nM ATP, ECL, ImageJ, sites in SNN, LOOP and LOOP-SNC)	Hsc70 binding of the SNAP-25 sequence in the peptide array [1]	enhancement of V438F Hsc70 ATPase activity [2]
synaptosomal-associated 25 kDa protein [SNAP-25]	Three major Hsc70 binding sites	–	–
EREQMAISGGFIRR [SNCP, peptide … from the LOOP-SNC domain of SNAP-25]	–	strong binding	did not enhance its ATPase activity
RRMLQLVEESK [SNNP, peptide … from the SNN domain of SNAP-25]	–	strong binding	did not enhance its ATPase activity
